Like-named read-outs stand apart in the source and are kept apart here.
Columns and labels:
[1] = log P by HPLC on reversed-phase column (C 18), EEC Directive 79/831 Annex V.A8; format: physicochemical; conditions: 55° C.; for LOGP_HCOOH: log P (HCOOH); for chromatographic logP: reversed-phase HPLC column (C 18)
Protocol: Temperature: 55° C. […] Called log P (HCOOH) in the table. […] Called log P (neutral) in the table.

Spodoptera frugiperda = Spodoptera frugiperda spray test; format: in vivo; conditions: after 7 days, maize leaf discs; for pest or weed control at 100 g/ha / pest or weed control at 500 g/ha: Spodoptera frugiperda, foliar, 168 h, read-out: efficacy (caterpillars killed)
Outline: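 Efficacy in % was scored at 7 days against armyworm caterpillars placed on dried, compound-sprayed Zea mays leaf discs. Compound was dissolved in acetone/dimethylformamide and diluted in water with 1000 ppm alkylaryl polyglycol ether. 100% means all caterpillars were killed.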

Phaedon cochleariae = Phaedon cochleariae spray test; format: in vivo; conditions: after 7 days, Chinese cabbage leaf discs
Outline: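 Larval kill read at day 7 as percent, where 100% means every larva dead and 0% none; larvae were placed on dried Brassica pekinensis leaf discs previously sprayed with the formulation (acetone/dimethylformamide solvent, alkylaryl polyglycol ether emulsifier, water).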

Ctenocephalides felis = Ctenocephalides felis oral test; format: in vivo; conditions: application rate 100 ppm in citrated cattle blood, after 2 days, adult cat fleas
Protocol: Ctenocephalides felis—Oral Test Solvent: dimethyl sulphoxide To produce a suitable active ingredient formulation, 10 mg of active ingredient are mixed with 0.5 ml of dimethyl sulphoxide. Dilution with citrated cattle blood gives the desired concentration. About 20 unfed adult cat fleas (Ctenocephalides felis) are placed into a chamber which is closed at the top and bottom with gauze. A metal cylinder whose bottom end is closed with parafilm is placed onto the chamber. The cylinder contains the blood/active ingredient formulation, which can be imbibed by the fleas through the parafilm membrane. After 2 days, the kill in % is determined. 100% means that all of the fleas have been killed; 0% means that none of the fleas have been killed.

[2] = acidic range at pH 2.7, 0.1% aqueous formic acid and acetonitrile, HPLC on reversed-phase column (C 18)
[3] = log P, neutral range, HPLC on reversed-phase column (C 18)
[4] = pH 2.7, LC-MS acidic range, pH 2.7, 0.1% formic acid/acetonitrile, read-out: log P (acidic) / log P (HCOOH)
[5] = pH 7.8, LC-MS neutral range, pH 7.8, ammonium hydrogencarbonate/acetonitrile, read-out: log P (neutral)
[6] = acidic range pH 2.7, 0.1% aqueous formic acid and acetonitrile, reversed-phase column (C 18)
[7] = log P (neutral), HPLC reversed-phase column (C 18)

SMILES	LOGP_HCOOH [1, 2]	LOGP_NEUTRAL [1, 3]	LOGP_HCOOH [1, 6]	efficacy (caterpillars killed) (Spodoptera frugiperda; application rate 500 g/ha)	efficacy (beetle larvae killed) (Phaedon cochleariae; application rate 500 g/ha)	efficacy (kill in %) (Ctenocephalides felis)	also measured
O=C(NCc1ccccn1)c1cc(-c2ccc(OC(F)(F)F)cc2)cc(NC(=O)C2CC2)n1 [Example I-116]	2.88	3.30		100%	100%	100%	efficacy (beetle larvae killed) (Phaedon cochleariae; application rate 100 g/ha): 100%
N#Cc1ccc(CNC(=O)c2cc(-c3ccc(C(F)(C(F)(F)F)C(F)(F)F)cc3)cc(NC(=O)C3CC3)n2)cc1 [Example I-150]	4.51	4.41		100%		95%	efficacy (caterpillars killed) (Spodoptera frugiperda; application rate 100 g/ha): 100%
O=C(NCC1CCCCC1)c1cc(-c2ccc(OC(F)(F)F)cc2)cc(NC(=O)C2CC2)n1 [Example I-167]	5.11	4.89				90%	
COC(=O)N(Cc1ccc(C#N)cc1)C(=O)c1cc(-c2ccc(OC(F)(F)F)cc2)cc(N(C(=O)OC)C(=O)C2CC2)n1 [Example I-232, Methyl (4-cyanobenzyl)({6-[(cyclopropylcarbonyl)(methoxycarbonyl)amino]-4-[4-(trifluoromethoxy)phenyl]pyridin-2-yl}carbonyl)carbamate]	4.30	4.31					chromatographic logP [1, 4]: 4.3; chromatographic logP [1, 5]: 4.31; pest or weed control at 100 g/ha (Spodoptera frugiperda; application rate 100 g/ha): 100%; pest or weed control at 500 g/ha (Spodoptera frugiperda; application rate 500 g/ha): 100%; pest or weed control at 100 ppm (Ctenocephalides felis; Ctenocephalides felis, po, 48 h, read-out: efficacy (kill in %)): 100%
CCONC(=O)c1cc(-c2ccc(OC(F)(F)F)cc2)cc(NC(=O)C2CC2)n1 [Example I-235]			3.21		100%	95%	LOGP_NEUTRAL [1, 7]: 3.14
O=C(NC(=O)C1CC1)c1cc(-c2ccc(C(F)(F)C(F)(F)F)c(F)c2)cc(NC(=O)C2CC2)n1 [Example I-264, N-(Cyclopropylcarbonyl)-6-[(cyclopropylcarbonyl)amino]-4-[3-fluoro-4-(pentafluoroethyl)-phenyl]pyridine-2-carboxamide]			4.62				LOGP_NEUTRAL [1, 7]: 4.53; chromatographic logP [1, 4]: 4.62; chromatographic logP [1, 5]: 4.53; pest or weed control at 100 g/ha (Spodoptera frugiperda; application rate 100 g/ha): 100%; pest or weed control at 500 g/ha (Spodoptera frugiperda; application rate 500 g/ha): 100%; pest or weed control at 100 g/ha (Phaedon cochleariae; Phaedon cochleariae, foliar, 168 h, application rate 100 g/ha, read-out: efficacy (beetle larvae killed)): 100%; pest or weed control at 500 g/ha (Phaedon cochleariae; Phaedon cochleariae, foliar, 168 h, application rate 500 g/ha, read-out: efficacy (beetle larvae killed)): 100%
Cc1cc(-c2cc(NC(=O)C3CC3)nc(C(=O)NCc3ccc(C#N)cc3)c2)ccc1C(F)(F)C(F)(F)F [Example I-270]			4.45	100%	100%		
O=C(NCc1ccncc1)c1cc(-c2ccc(C(F)(F)C(F)(F)F)c(F)c2)cc(NC(=O)C2CC2)n1 [Example I-277]			2.17	100%	83%		LOGP_NEUTRAL [1, 7]: 3.33; efficacy (caterpillars killed) (Spodoptera frugiperda; application rate 100 g/ha): 100%

Now from value to compound, other results behind:

LOGP_HCOOH [1, 2]	LOGP_NEUTRAL [1, 3]	LOGP_HCOOH [1, 6]	SMILES	efficacy (caterpillars killed) (Spodoptera frugiperda; application rate 500 g/ha)	efficacy (beetle larvae killed) (Phaedon cochleariae; application rate 500 g/ha)	efficacy (kill in %) (Ctenocephalides felis)	also measured
		4.51	N#Cc1ccc(CNC(=O)c2cc(-c3c(Cl)cc(C(F)(F)C(F)(F)F)cc3Cl)cc(NC(=O)C3CC3)n2)cc1 [Example I-265]	100%	100%		
		4.05	N#Cc1ccc(CNC(=O)c2cc(-c3c(Cl)cc(C(F)(F)C(F)(F)F)cc3Cl)cc(NC(=O)C3CC3)n2)cc1 [Example I-268]	100%	83%		efficacy (caterpillars killed) (Spodoptera frugiperda; application rate 100 g/ha): 100%; efficacy (beetle larvae killed) (Phaedon cochleariae; application rate 100 g/ha): 83%
		4.23	N#Cc1ccc(CNC(=O)c2cc(-c3cc(F)c(C(F)(F)C(F)(F)F)c(F)c3)cc(NC(=O)C3CC3)n2)cc1 [Example I-271]	100%	83%		
		4.28	N#Cc1ccc(CNC(=O)c2cc(-c3cc(F)c(C(F)(F)C(F)(F)F)c(F)c3F)cc(NC(=O)C3CC3)n2)cc1 [Example I-274]	100%	100%		
		4.57	N#Cc1ccc(CNC(=O)c2cc(-c3c(Cl)cc(C(F)(F)C(F)(F)F)c(F)c3Cl)cc(NC(=O)C3CC3)n2)cc1 [Example I-276]	83%	100%		
